Test results as given in article PMC7550323 (Clinical Pharmacokinetics, 2020).

Tests used:
CYP3A4 [1] = molecular target: T1, CYP3A4 (Homo sapiens, UniProt P08684); assay: Effect of gilteritinib on the pharmacokinetics of midazolam; details: for AUC24, GLSM ratio (midazolam + gilteritinib/midazolam alone) / Cmax, GLSM ratio (midazolam + gilteritinib/midazolam alone): 100 indicates no change; for increase in AUC24 on coadministration of gilteritinib with midazolam / increase in Cmax on coadministration of gilteritinib with midazolam: relative to midazolam alone
CYP3A4 [2] = molecular target: T1, CYP3A4; assay: clinical; details: plasma, po, 2 mg
[3] = human, in vivo; cited from earlier work

T1 sequence (P08684 whole entry): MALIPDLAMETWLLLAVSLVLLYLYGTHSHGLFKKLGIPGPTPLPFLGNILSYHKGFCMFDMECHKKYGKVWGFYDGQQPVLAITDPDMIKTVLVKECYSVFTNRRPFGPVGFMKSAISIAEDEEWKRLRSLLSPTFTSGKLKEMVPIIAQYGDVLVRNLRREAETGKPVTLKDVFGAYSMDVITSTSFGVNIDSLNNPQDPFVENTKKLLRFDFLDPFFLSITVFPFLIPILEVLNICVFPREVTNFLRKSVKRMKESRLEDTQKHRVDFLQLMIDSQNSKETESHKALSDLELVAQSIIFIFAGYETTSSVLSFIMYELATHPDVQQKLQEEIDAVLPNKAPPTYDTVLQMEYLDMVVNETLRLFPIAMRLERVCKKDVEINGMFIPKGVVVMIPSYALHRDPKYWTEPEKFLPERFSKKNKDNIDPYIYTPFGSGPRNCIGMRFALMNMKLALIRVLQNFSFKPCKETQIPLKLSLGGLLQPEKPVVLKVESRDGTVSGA

SMILES | AUC24, GLSM ratio (midazolam + gilteritinib/midazolam alone) (CYP3A4 [1]; N = 8) [%] | Cmax, GLSM ratio (midazolam + gilteritinib/midazolam alone) (CYP3A4 [1]; N = 9) [%] | AUC24, MDZ + gilteritinib (GLSM) (CYP3A4 [1]; midazolam 2 mg oral on Cycle 1 Day 15 with gilteritinib 300 mg QD, N = 8) [ng·h/mL] | Cmax, MDZ + gilteritinib (GLSM) (CYP3A4 [1]; midazolam 2 mg oral on Cycle 1 Day 15 with gilteritinib 300 mg QD, N = 9) [ng/mL] | AUC24, MDZ alone (GLSM) (CYP3A4 [1]; midazolam 2 mg oral on Day-1, N = 8) [ng·h/mL] | Cmax, MDZ alone (GLSM) (CYP3A4 [1]; midazolam 2 mg oral on Day-1, N = 9) [ng/mL] | increase in AUC24 on coadministration of gilteritinib with midazolam (CYP3A4 [1]) [%] | increase in Cmax on coadministration of gilteritinib with midazolam (CYP3A4 [1]) | AUC (CYP3A4 [2]) [ng·h/mL] | Cmax (CYP3A4 [2]) [ng/mL] | half-life [3] [h] | increase in exposure when coadministered with itraconazole [3] [fold] | increase in exposure when coadministered with ketoconazole [3] [fold] | increase in exposure with a high-fat meal [3] [fold]
OCc1ncc2n1-c1ccc(Cl)cc1C(c1ccccc1F)=NC2 [1-hydroxymidazolam] | 149.9 | 123.5 | 17.0 | 4.3 | 11.3 | 3.5 | ~50 | approximately 23% |  |  |  |  |  | 
Cc1ncc2n1-c1ccc(Cl)cc1C(c1ccccc1F)=NC2 [midazolam, reference compound] | 109.5 | 111.6 |  |  |  |  | 10 | 10% | 54.3 | 14.3 |  |  |  | 
CO[C@@H]1[C@H](N(C)C(=O)c2ccccc2)C[C@H]2O[C@]1(C)n1c3ccccc3c3c4c(c5c6ccccc6n2c5c31)C(=O)NC4 [midostaurin] |  |  |  |  |  |  |  |  |  |  | 21 | 2.1 | 10.4 | 1.6
